The target of the assay is T1, Parkin ligase (Homo sapiens, UniProt O60260).
T1 sequence (O60260 1-465): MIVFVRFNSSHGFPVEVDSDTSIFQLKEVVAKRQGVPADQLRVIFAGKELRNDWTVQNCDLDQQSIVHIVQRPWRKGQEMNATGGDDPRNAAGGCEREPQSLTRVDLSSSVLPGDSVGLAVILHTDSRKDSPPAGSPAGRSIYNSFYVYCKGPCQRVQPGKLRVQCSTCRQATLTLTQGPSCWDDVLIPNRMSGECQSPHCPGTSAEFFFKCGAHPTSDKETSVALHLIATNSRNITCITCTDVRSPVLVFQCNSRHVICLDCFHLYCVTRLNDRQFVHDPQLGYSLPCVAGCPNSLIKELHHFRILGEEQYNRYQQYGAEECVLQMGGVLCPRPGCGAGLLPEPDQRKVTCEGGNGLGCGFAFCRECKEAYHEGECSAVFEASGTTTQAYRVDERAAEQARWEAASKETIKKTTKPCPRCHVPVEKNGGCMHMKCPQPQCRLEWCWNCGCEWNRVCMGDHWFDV
The assay can be described thus: Activity-Based Probe Assay using an Ubiquitin vinyl sulfone probe (TR-FRET). The assay is classed as biochemical. To be noted: Parkin activation, HA-Ub-VS probe, heat activated Parkin; read-out: Probe Assay EC50 (μM) [Example 2]. How it is done: An Ubiquitin vinyl sulfone probe can be used that irreversibly binds to the active site cysteine of Parkin ligase. Covalent attachment of the probe to the Parkin can be monitored by TR-FRET. Candidate activator compounds can be identified by increasing the activity of Parkin ligase due to an increase in TR-FRET signal. Screening for activating compounds can be distinguished from the controls as follows: • 100% activation signal=Heat activated Parkin+100 nM control activator in DMSO. • 0% activation signal=Heat activated Parkin+DMSO only. • Parkin activators can be identified by an increase of the 0% activation signal TR-FRET signal.
• Assay Plate: White 384 well plate (Corning 3572) • Enzyme: Parkin-His tagged 203 μM (10.5 mg/ml) • Probe: Ubiquitin vinyl-sulfone (HA-Ub-VS Boston Biochem U-212) • DMSO: DMSO (Sigma cat # D4540-100ML) • Reaction Buffer: 50 mM HEPES (pH 8.5), 150 mM NaCl, 0.01% Tween 20, 0.1% BSA • Detection Buffer: 50 mM HEPES (pH 8.5), 150 mM NaCl, 0.01% Tween 20, 0.1% BSA, 800 mM KF • Detection Reagent A: 2.6 nM Anti-6HIS-Eu cryptate and 40 nM Anti-HA-XL665 in detection buffer • Eu cryptate: Anti-6HIS-Eu cryptate (CisBio 61HISKLA) • XL665: Anti-HA-XL665 (CisBio 610HAXLA) Enzyme Reaction (15 min pre incubation Parkin with activator only) • Parkin: 40 nM • HA-Ub-VS Probe: 70 nM • Activator/DMSO: 2× Activator/2% DMSO • Reaction time: 60 minutes • Temperature: 22° C. • Total volume: 10 μl reaction Detection Reaction • Take 10 μl of Enzyme Reaction above and add 10 μl detection Reagent A under the following conditions: • Reaction time: 60 minutes • Temperature: 22° C. • Total volume: 20 μl
Assay procedure (Using HP D-300 compound dispenser and Bravo for the operation): • 1) Heat activate Parkin in reaction buffer (500 μl/1.5 ml tube: Eppendorf Thermomixer 5 minutes, 400 rpm at 58° C. and put on ice until needed). • 2) Load assay plate wells with 4.8 μl 84.5 nM Parkin in reaction buffer by use of Bravo. • 3) Deliver 0.2 μl 200× activator candidates in DMSO by use of HP D-300 compound dispenser. Highest 200× concentration=[…] and then twofold dilutions. • 4) Spin 1000 rpm, 2 minutes, at room temp. • 5) Incubate plate for 15 minutes at room temp. • 6) Add 5 μl 140 nM HA-Ub-VS Probe in reaction buffer by use of Bravo. • 7) Spin 1000 rpm, 2 minutes, at room temp. • 8) Incubate plate for 60 minutes at room temp. • 9) Add 10 μl 2.6 nM Anti-6HIS-Eu cryptate and 40 nM Anti-HA-XL665 in detection buffer. • 10) Spin 1000 rpm, 2 minutes, at room temp. • 11) Incubate plate for 60 minutes at room temp. • 12) Read plates on Perkin Elmer Envision instrument with the following parameters: • LANCE dual laser protocol loaded into the Envision® software • Top Mirror: LANCE/DELFIA Duel/Bias (Bar code 446) • Emission Filter: APC 665 EM (Bar code 205) • 2nd Emission Filter: Europium 615 EM (Bar code 203) • Read 655 nm (channel 1) and 615 nm (channel 2) wavelengths on Envision®
Data Analysis: The Data can be read in CSV files. There are two tables in those CSV files, which are the values of 655 nm (channel 1) and 615 nm (channel 2) wavelengths respectively. The data is converted to an HTRF Ratio=(Channel 1/Channel 2)*10,000
The average of all the 0 uM controls (DMSO only)=BKGD (Background—0% activation). Subtract BKGD from each HTRF Ratio value=HTRF-BKGD. The average of all the […] 100 nM control activator in DMSO controls=Max (100% activation). The following equation is then used to calculate % Activation for each well/candidate as follows: % Activation=(HTRF-BKGD/Max)*100.
Graphpad Prisim was used with Transform X values: X=Log(X) and nonlinear regression (dose-response-stimulation): Log(agonist) vs Response—variable slope (four parameters) with constrains set to Bottom=0 and Top=100.
The Activity-Based Probe Assay was performed with various compounds in Tables 1-3.

The source of these data is patent US10308617B2, “Triazole benzamide derivatives and the compositions and methods of treatment regarding the same” (An2H Discovery Limited, priority 2016, dated 2019).

On to `Cc1ccccc1C(=O)Nc1nc(NC(=O)c2ccccn2)n(-c2ccccc2)n1` [Compound A3], for which the EC50 was over 100 µM.

For the compound `Cc1ccccc1C(=O)Nc1nc(NC(=O)c2ccccc2C)n(-c2ccncc2)n1` [Compound B3], the EC50 is over 100 µM.

In the case of `Cc1ccccc1C(=O)Nc1nc(NC(=O)c2ccccc2C)n(C(C)(C)C)n1` [Compound D3], the EC50 is over 100 µM.

Regarding `Cc1ccccc1C(=O)Nc1nc(NC(=O)c2ccccc2F)n(-c2ccccc2)n1` [Compound E3], the EC50 was over 100 µM.

Regarding `Cc1cccc(C(=O)Nc2nc(NC(=O)c3cccc(C)c3)n(-c3ccccc3)n2)c1` [Compound F3], the 50% effective concentration (EC50) was over 100 µM.

For `Cc1ccccc1C(=O)Nc1nc(-c2ccncn2)nn1-c1ccccc1` [Compound G3], the 50% effective concentration (EC50) was 74 µM.

On to `Cc1ccccc1C(=O)Nc1nc(NC(=O)c2ccccc2C)n(CC(C)C)n1` [Compound I3], for which the 50% effective concentration (EC50) was over 100 µM.

`Cc1ccccc1C(=O)Nc1nc(NC(=O)c2ccccc2C)n(C2CCCCC2)n1` [Compound J3]: the EC50 was found to be 37 µM.

For `COc1ccccc1C(=O)Nc1nc(NC(=O)c2ccccc2C)nn1-c1ccccc1` [Compound K3], the EC50 turned out to be 17 µM.

In the case of `Cc1ccccc1C(=O)Nc1nc(NCCc2ccccc2)n(-c2ccccc2)n1` [Compound L3], the 50% effective concentration (EC50) was over 100 µM.

For `Cc1ccccc1C(=O)Nc1nc(NC(=O)c2ccncc2)n(-c2ccccc2)n1` [Compound M3], the EC50 was over 100 µM.

Take `Cc1ccccc1C(=O)Nc1nc(N)n(-c2ccccc2)n1` [Compound N3]: the EC50 was over 100 µM.

On to `Cc1ccccc1C(=O)Nc1nc(NC(=O)c2ccccc2C)n(-c2ccc(F)cc2)n1` [Compound O3], for which the EC50 is over 100 µM.

For the compound `Cc1ccccc1C(=O)Nc1nc(NC(=O)c2ccccn2)n(-c2ccccc2)n1` [Compound P3], the 50% effective concentration (EC50) was found to be 9 µM.

Consider `Cc1ccccc1C(=O)Nc1nc(NC(=O)c2ccccc2C)n(-c2cccnc2)n1` [Compound Y2], for which the EC50 is over 100 µM.
